In patent publication US20110160196A1, “FACTOR XA INHIBITORS” (Millennium Pharmaceuticals, Inc., priority 2007, published 2011):

target: T1, human plasma protein factor Xa (Homo sapiens, UniProt P00742); assay: Factor Xa IC50 determination (cleavage of paranitroanilide substrate S-2765); format: biochemical; conditions: factor Xa 1 nM, S-2765 100 μM, Tris buffered saline pH 7.4, read at 405 nm
T1 construct: The human plasma protein factor Xa was purchased; purchased Haematologic Technologies (Essex Junction, Vt.); host or cells: human plasma
In short: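 Human plasma factor Xa (1 nM) preincubated 5 min at room temperature with inhibitor (0.01 nM–10 μM) in Tris-buffered saline pH 7.4 with 5 mM CaCl2, 0.1% BSA, 5% DMSO. S-2765 added at 100 μM final; pNA release followed at 405 nm for 2 min. IC50 from four-parameter fit of initial velocities.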

T1 sequence (P00742 235-488 limits assumed): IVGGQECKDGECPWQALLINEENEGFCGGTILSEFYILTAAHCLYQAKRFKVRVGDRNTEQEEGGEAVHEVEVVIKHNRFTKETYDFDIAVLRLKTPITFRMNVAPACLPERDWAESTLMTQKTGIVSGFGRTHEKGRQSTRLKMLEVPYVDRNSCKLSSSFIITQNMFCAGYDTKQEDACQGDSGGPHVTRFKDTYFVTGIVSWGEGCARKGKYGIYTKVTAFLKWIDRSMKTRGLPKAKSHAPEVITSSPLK
T1 sequence (P00742 41-179 partner limits assumed): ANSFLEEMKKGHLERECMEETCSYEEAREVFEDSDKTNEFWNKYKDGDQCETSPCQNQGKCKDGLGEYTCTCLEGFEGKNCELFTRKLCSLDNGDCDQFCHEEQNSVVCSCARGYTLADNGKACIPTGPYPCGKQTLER

SMILES	IC50 [µM]
COc1cc(-c2cc(-n3ccccc3=O)ccc2-n2cc(CNC(=O)c3ccc(Cl)s3)nn2)ccn1 [Compound 138, 5-Chloro-N-((1-(2-(2-methoxypyridin-4-yl)-4-(2-oxopyridin-1(2H)-yl)phenyl)-1H-1,2,3-triazol-4-yl)methyl)thiophene-2-carboxamide]	≤ 0.1
Nc1cc(-c2cc(-n3ccccc3=O)ccc2-n2cc(CNC(=O)c3ccc(Cl)s3)nn2)ccn1 [Compound 139, N-((1-(2-(2-Aminopyridin-4-yl)-4-(2-oxopyridin-1(2H)-yl)phenyl)-1H-1,2,3-triazol-4-yl)methyl)-5-chlorothiophene-2-carboxamide]	≤ 0.1
CN(C)c1cc(-c2cc(-n3ccccc3=O)ccc2-n2cc(CNC(=O)c3ccc(Cl)s3)nn2)ccn1 [Compound 140, 5-Chloro-N-((1-(2-(2-(dimethylamino)pyridin-4-yl)-4-(2-oxopyridin-1(2H)-yl)phenyl)-1H-1,2,3-triazol-4-yl)methyl)thiophene-2-carboxamide]	≤ 0.1
CNc1cc(-c2cc(-n3ccccc3=O)ccc2-n2cc(CNC(=O)c3ccc(Cl)s3)nn2)ccn1 [Compound 141, 5-Chloro-N-((1-(2-(2-(methylamino)pyridin-4-yl)-4-(2-oxopyridin-1(2H)-yl)phenyl)-1H-1,2,3-triazol-4-yl)methyl)thiophene-2-carboxamide]	≤ 0.1
O=C(NCc1cn(-c2ccc(-n3ccccc3=O)cc2-c2ccc(O)nc2)nn1)c1ccc(Cl)s1 [Compound 142, 5-Chloro-N-((1-(2-(6-hydroxypyridin-3-yl)-4-(2-oxopyridin-1(2H)-yl)phenyl)-1H-1,2,3-triazol-4-yl)methyl)thiophene-2-carboxamide]	≤ 0.1
COc1ccc(-c2cc(-n3ccccc3=O)ccc2-n2cc(CNC(=O)c3ccc(Cl)s3)nn2)cn1 [Compound 143, 5-Chloro-N-((1-(2-(6-methoxypyridin-3-yl)-4-(2-oxopyridin-1(2H)-yl)phenyl)-1H-1,2,3-triazol-4-yl)methyl)thiophene-2-carboxamide]	≤ 0.1
Nc1ccc(-c2cc(-n3ccccc3=O)ccc2-n2cc(CNC(=O)c3ccc(Cl)s3)nn2)cn1 [Compound 144, N-((1-(2-(6-Aminopyridin-3-yl)-4-(2-oxopyridin-1(2H)-yl)phenyl)-1H-1,2,3-triazol-4-yl)methyl)-5-chlorothiophene-2-carboxamide]	≤ 0.1
CN(C)c1ccc(-c2cc(-n3ccccc3=O)ccc2-n2cc(CNC(=O)c3ccc(Cl)s3)nn2)cn1 [Compound 145, 5-Chloro-N-((1-(2-(6-(dimethylamino)pyridin-3-yl)-4-(2-oxopyridin-1(2H)-yl)phenyl)-1H-1,2,3-triazol-4-yl)methyl)thiophene-2-carboxamide]	≤ 0.1
CNc1ccc(-c2cc(-n3ccccc3=O)ccc2-n2cc(CNC(=O)c3ccc(Cl)s3)nn2)cn1 [Compound 146, 5-Chloro-N-((1-(2-(6-(methylamino)pyridin-3-yl)-4-(2-oxopyridin-1(2H)-yl)phenyl)-1H-1,2,3-triazol-4-yl)methyl)thiophene-2-carboxamide]	≤ 0.1
NC(=O)CCNC(=O)c1cc(-n2ccccc2=O)ccc1-n1cc(CNC(=O)c2ccc(Cl)s2)nn1 [Compound 147, N-((1-(2-(3-Amino-3-oxopropylcarbamoyl)-4-(2-oxopyridin-1(2H)-yl)phenyl)-1H-1,2,3-triazol-4-yl)methyl)-5-chlorothiophene-2-carboxamide]	0.1 to 0.5
O=C(NCc1cn(-c2ccc(-n3ccccc3=O)cc2OCCn2ccnc2)nn1)c1ccc(Cl)s1 [Compound 148, N-((1-(2-(2-(1H-Imidazol-1-yl)ethoxy)-4-(2-oxopyridin-1(2H)-yl)phenyl)-1H-1,2,3-triazol-4-yl)methyl)-5-chlorothiophene-2-carboxamide]	≤ 0.1
O=C(NCc1cn(-c2ccc(-n3ccccc3=O)cc2OCCCOC(=O)N2CCOCC2)nn1)c1ccc(Cl)s1 [Compound 150, 3-(2-(4-((5-Chlorothiophene-2-carboxamido)methyl)-1H-1,2,3-triazol-1-yl)-5-(2-oxopyridin-1(2H)-yl)phenoxy)propyl morpholine-4-carboxylate]	≤ 0.1
O=C(NCc1cn(-c2ccc(-n3ccccc3=O)cc2Oc2ccccn2)nn1)c1ccc(Cl)s1 [Compound 151, 5-Chloro-N-((1-(4-(2-oxopyridin-1(2H)-yl)-2-(pyridin-2-yloxy)phenyl)-1H-1,2,3-triazol-4-yl)methyl)thiophene-2-carboxamid]	≤ 0.1
O=C(O)COc1cc(-n2ccccc2=O)ccc1-n1nnc(CNC(=O)c2ccc(Cl)s2)c1I [Compound 152, 2-(2-(4-((5-Chlorothiophene-2-carboxamido)methyl)-5-iodo-1H-1,2,3-triazol-1-yl)-5-(2-oxopyridin-1(2H)-yl)phenoxy)acetic acid]	≤ 0.1
O=C(NCc1nnn(-c2ccc(-n3ccccc3=O)cc2OCCCO)c1I)c1ccc(Cl)s1 [Compound 153, 5-Chloro-N-((1-(2-(3-hydroxypropoxy)-4-(2-oxopyridin-1(2H)-yl)phenyl)-5-iodo-1H-1,2,3-triazol-4-yl)methyl)thiophene-2-carboxamide]	0.1 to 0.5
O=C(NCc1nnn(-c2ccc(-n3ccccc3=O)cc2OC[C@H](O)CO)c1I)c1ccc(Cl)s1 [Compound 154, 5-Chloro-N-((1-(2-((R)-2,3-dihydroxypropoxy)-4-(2-oxopyridin-1(2H)-yl)phenyl)-5-iodo-1H-1,2,3-triazol-4-yl)methyl)thiophene-2-carboxamide]	0.1 to 0.5
O=C(NCc1nnn(-c2ccc(-n3ccccc3=O)cc2OC[C@@H](O)CO)c1I)c1ccc(Cl)s1 [Compound 155, 5-Chloro-N-((1-(2-((S)-2,3-dihydroxypropoxy)-4-(2-oxopyridin-1(2H)-yl)phenyl)-5-iodo-1H-1,2,3-triazol-4-yl)methyl)thiophene-2-carboxamide]	≤ 0.1
O=C(NCc1cn(-c2ccc(-n3ccccc3=O)cc2OCCn2cccn2)nn1)c1ccc(Cl)s1 [Compound 156, N-((1-(2-(2-(1H-Pyrazol-1-yl)ethoxy)-4-(2-oxopyridin-1(2H)-yl)phenyl)-1H-1,2,3-triazol-4-yl)methyl)-5-chlorothiophene-2-carboxamide]	≤ 0.1
O=C(NCc1cn(-c2ccc(N3CCCCC3=O)cc2N2CCSCC2)nn1)c1ccc(Cl)s1 [Compound 157, 5-Chloro-N-((1-(4-(2-oxopiperidin-1-yl)-2-thiomorpholinophenyl)-1H-1,2,3-triazol-4-yl)methyl)thiophene-2-carboxamide]	≤ 0.1
O=C(NCc1cn(-c2ccc(N3CCCCC3=O)cc2N2CCS(=O)(=O)CC2)nn1)c1ccc(Cl)s1 [Compound 158, 5-Chloro-N-((1-(4-(2-oxopiperidin-1-yl)-2-((1,1-dioxo)thiomorpholino)phenyl)-1H-1,2,3-triazol-4-yl)methyl)thiophene-2-carboxamide]	≤ 0.1
O=C1CN(c2cc(N3CCCCC3=O)ccc2-n2cc(CNC(=O)c3ccc(Cl)s3)nn2)CCN1 [Compound 159, 5-Chloro-N-((1-(2-(3-oxopiperazin-1-yl)-4-(2-oxopiperidin-1-yl)phenyl)-1H-1,2,3-triazol-4-yl)methyl)thiophene-2-carboxamide]	≤ 0.1
O=C(NCc1cn(-c2ccc(-n3ccccc3=O)cc2CN2CCOCC2)nn1)c1ccc(Cl)s1 [Compound 160, 5-Chloro-N-((1-(2-(morpholinomethyl)-4-(2-oxopyridin-1(2H)-yl)phenyl)-1H-1,2,3-triazol-4-yl)methyl)thiophene-2-carboxamide]	≤ 0.1
